# Measurements from patent US20020151591A1, “Combination use of acetylcholinesterase inhibitors and GABAa inverse agonists for the treatment of cognitive disorders” (priority 2000, published 2002).
# Tested on: scopolamine-induced retention deficit in male Sprague Dawley rats
# Assay: Scopolamine-induced memory deficit in the spatial water maze task
# Format: in vivo, rat
# Settings: IV 5 minutes prior to scopolamine 0.125 mg/kg IP; sub-efficacious doses; retention tested one day after training; Fisher LSD p<0.05 vs PEG/scopolamine
# Protocol: Subjects: Animals used in these studies were naive male Sprague Dawley rats (SASCO St. Louis) weighing between 200-250 grams. Animals were housed in groups of three in a temperature (22° C.[…]) and humidity (40-70% relative humidity) controlled vivarium with a 12-hour light/dark cycle. Animals had ad lib access to food and water.
# Drugs: Aricept and said compound of Formula I were each dissolved in 50% polyethylene glycol (PEG), and scopolamine HCI (Sigma) was dissolved in 0.9% saline. Aricept and said compound of Formula I (alone or in combination) or 50% PEG was administered intravenously (IV) 5 minutes prior to scopolamine (0.125 mg/kg) or saline given intraperitoneally (IP). Training commenced 15 minutes after the IP injection. […]
# Procedure: An animal was initially placed on the platform in the tank for 20 seconds. […] For each trial during acquisition and retention, a computerized video tracking system recorded the latency (sec) to reach the submerged platform the total distance traveled (m) in the water maze, the number of zone (quadrant) transitions made, and the swim speed of the animal.
# Data Analysis: A one-way ANOVA was conducted on the latency to locate the platform during retention testing. Tests for significant differences between individual treatment groups were assessed using a Fisher LSD test (p<0.05).
smiles,measurement,value
"COc1cc2c(cc1OC)C(=O)C(CC1CCN(Cc3ccccc3)CC1)C2 (stereo not shown) [Aricept, donepezil]",attenuation of scopolamine-induced retention deficit (latency to locate the platform during retention testing),did not significantly attenuate
